According to article PMC11992225, “Antibacterial compounds against non-growing and intracellular bacteria” (npj Antimicrobials and Resistance, 2025):
pEC50: −log10 of the molar value. “And” between values parts separate entries of the source, which are not always exact repeats. Identical values can stand only once.

Experiments:
[1] = test system: non-growing P. aeruginosa DSM1117; assay: Dilution-regrowth assay (OD600, start-growth-time) on stationary-phase P. aeruginosa; format: cell-based, Pseudomonas aeruginosa; conditions: Pseudomonas aeruginosa, DSM1117; P. aeruginosa; regrowth delay of non-growing bacteria, 1:4 CA-MHB pH 7.4, 24 h treatment, OD600 8 h after dilution; read-out: EC50
Procedure: To determine the spectrum of activity of the compounds that were effective against non-growing UPEC, we further assessed their efficacy against the well-characterized Gram-negative and Gram-positive reference strains P. aeruginosa DSM1117 and S. aureus DSM2569, respectively. The cultures were grown and treated for 24 h in 1:4 CA-MHB (pH 7.4). […].
For better characterization of the compounds causing the strongest regrowth delay, we performed the regrowth step of the dilution-regrowth experiments on a plate reader, measuring the OD600 at 20-min intervals for over 20 h instead of using an endpoint measurement. This approach allowed us to capture the time when cultures reached a threshold optical density (start-growth-time, SGT[15]).
Overnight cultures of UPEC, P. aeruginosa and S. aureus were grown in test tubes containing 3 ml of LB broth (~16 h), then diluted 1:100 into either 1:4 diluted CA-MHB medium buffered with 40 mM HEPES (pH 7.4) or, in case of UPEC, into LPM medium[25] supplemented with 49 µM MgCl2 and buffered with 30 mM MES (pH 5.5). The cultures were incubated for 24 h in non-baffled Erlenmeyer flasks at 37 °C with shaking at 200 rpm.
For P. aeruginosa and S. aureus, dose–response analysis was conducted in 96-well plates with a 200 μl assay volume, following the procedure used for screening assay validation experiments. Aliquots of the 39 compounds active against non-growing UPEC were obtained from SelleckChem and MedChem Express. Stock solutions were prepared and stored according to the manufacturers’ instructions, then diluted in 10% DMSO before use. Cultures were incubated for 24 h in 1:4 diluted CA-MHB medium under the same conditions used for UPEC cultivation. In preliminary experiments, each compound was tested at a concentration of 20 μM in the dilution-regrowth assay with 4 technical replicates. Regrowth was monitored using a microplate reader at 37 °C with continuous shaking, and OD600 was recorded every 20 min. The time at which OD600 exceeded the threshold of 0.12 was recorded as the Start_Growth-Time.
The statistical analysis of all data, as well as EC50 and IC50 determination, was conducted using GraphPad Prism 10.2.3. Statistical significance of the drug effects was assessed using a one-way ANOVA followed by Dunnett’s test, comparing each treatment to the drug-free control. Statistical significance of the differences in chemical characteristics between the hit compounds and the Prestwick library was assessed using a Mann–Whitney test. Statistical significance was set at P ≤ 0.05. A five-parameter logistic equation was used for asymmetric sigmoidal curve fitting and for EC50 and IC50 determination. The Venn diagram in Fig. 1F was prepared using BioVenn web application. Characteristics of the chemical and physical properties of Prestwick library compounds were obtained from Supplementary Table S1 from reference. Characteristics of the hit compounds not included in the Prestwick library were retrieved from the PubChem database.

non-growing UPEC CFT073 = assay: Dose-dependent killing analysis (CFU spot-plating) of stationary-phase UPEC; format: cell-based, Escherichia coli
In short: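 Non-growing (stationary-phase) UPEC CFT073 treated with compounds in 96-well format at 200 μl, then 10-fold serially diluted in PBS and 10 μl spots plated on LB agar. Plates incubated overnight at 37 °C; colonies counted at lowest resolvable dilution to give CFU. Three biological replicates.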

[2] = test system: non-growing S. aureus DSM2569; assay: Dose-dependent killing analysis (CFU spot-plating) of stationary-phase S. aureus; format: cell-based, Staphylococcus aureus; conditions: S. aureus; for Killing: average Δlog10(CFU/ml): vs 9,097 before treatment
In short: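 Stationary-phase S. aureus DSM2569 was grown and treated for 24 h in 1:4 CA-MHB at pH 7.4. Treated samples were serially diluted 10-fold in PBS and spot-plated on LB agar, which was incubated overnight at 37 °C. Survivors were counted as CFU over three biological replicates.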

[3] = test system: non-growing S. aureus DSM2569; assay: Dilution-regrowth assay (OD600, start-growth-time) on stationary-phase S. aureus; format: cell-based, Staphylococcus aureus; conditions: S. aureus; for Regrowth: OD600 after dilution into drug-free medium (mean): OD600 at 6h or 8h
In short: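 Stationary-phase S. aureus cultures were grown and exposed to compound for 24 h in 1:4 CA-MHB (pH 7.4) at 37 °C in 96-well plates with 200 μl volume. After dilution into drug-free medium, regrowth was tracked in a plate reader at 37 °C with continuous shaking, reading OD600 every 20 min; EC50 came from five-parameter logistic fitting.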

In the case of `CN1C[C@@H]2C[C@H]1CN2c1cc2c(cc1F)c(=O)c(C(=O)O)cn2C1CC1` [Danofloxacin], the pEC50 [1] was 6.22.

For `CC[C@H]1OC(=O)[C@@](C)(F)C(=O)[C@H](C)[C@@H](O[C@@H]2O[C@H](C)C[C@H](N(C)C)[C@H]2O)[C@](C)(OC)C[C@@H](C)C(=O)[C@H](C)[C@H]2N(CCCCn3cc(-c4cccc(N)c4)nn3)C(=O)O[C@]12C` [Solithromycin], the pEC50 [1] was 6.80 and the “bactericidal activity against non-growing UPEC (CFU counting)” value (non-growing UPEC CFT073; 24 h treatment of stationary phase culture) was “did not kill”.

For `O=C(O)c1cn(C2CC2)c2cc(N3CCNCC3)c(F)cc2c1=O` [Ciprofloxacin], the pEC50 [1] was 6.90.

In the case of `CCN1CCN(c2cc3c(cc2F)c(=O)c(C(=O)O)cn3C2CC2)CC1` [Enrofloxacin], the pEC50 [1] was 6.16.

`CC1Sc2c(C(=O)O)c(=O)c3cc(F)c(N4CCNCC4)cc3n21` (stereo not drawn) [Ulifloxacin] was tested, and the pEC50 [1] was 7.09.

In the case of `CC[C@H]1OC(=O)C[C@@H](O)[C@H](C)[C@@H](O[C@@H]2O[C@H](C)C[C@H](N(C)C)[C@H]2O)[C@@H](CC=O)C[C@@H](C)C(=O)/C=C/[C@]2(C)O[C@H]2[C@@H]1C` [Rosamicin], the pEC50 [1] was 5.64.

With `C[C@H]1NCc2cc(-c3ccc4c(=O)c(C(=O)O)cn(C5CC5)c4c3OC(F)F)ccc21` [Garenoxacin] the pEC50 [1] was 6.01.

With `CO[C@H]1/C=C/O[C@@]2(C)Oc3c(C)c(O)c4c(O)c(c(/C=N/N5CCN(C6CCCC6)CC5)c(O)c4c3C2=O)NC(=O)/C(C)=C\C=C\[C@H](C)[C@H](O)[C@@H](C)[C@@H](O)[C@@H](C)[C@H](OC(C)=O)[C@@H]1C` [Rifapentine] the “log10(CFU/ml) after treatment, single replicates” value (shortened to “log10(CFU/ml) after treatment”) ([2]; concentration 0.1) was 8.708 log10(CFU/ml) and 8.968 log10(CFU/ml) and 8.653 log10(CFU/ml), the “Killing: average Δlog10(CFU/ml)” value ([2]; concentration 0.1) was 0.321 log10(CFU/ml) and the “log10(CFU/ml) after treatment” value ([2]; concentration 0.5) was 8.732 log10(CFU/ml) and 8.954 log10(CFU/ml) and 8.491 log10(CFU/ml). For the same molecule, the “Killing: average Δlog10(CFU/ml)” value ([2]; concentration 0.5) was 0.371 log10(CFU/ml), the “log10(CFU/ml) after treatment” value ([2]; concentration 2.5) was 8.672 log10(CFU/ml) and 8.748 log10(CFU/ml) and 8.643 log10(CFU/ml) and the “Killing: average Δlog10(CFU/ml)” value ([2]; concentration 2.5) was 0.409 log10(CFU/ml). The “log10(CFU/ml) after treatment” value ([2]; concentration 10) was 8.756 log10(CFU/ml) and 8.477 log10(CFU/ml) and 8.544 log10(CFU/ml), the “Killing: average Δlog10(CFU/ml)” value ([2]; concentration 10) was 0.505 log10(CFU/ml) and the “Regrowth: OD600 after dilution into drug-free medium (mean)” value ([3]; concentration 0.1) was 0.215. The “Regrowth: OD600 after dilution into drug-free medium (mean)” value ([3]; concentration 0.5) was 0.149, the “Regrowth: OD600 after dilution into drug-free medium (mean)” value ([3]; concentration 2.5) was 0.116 and the “Regrowth: OD600 after dilution into drug-free medium (mean)” value ([3]; concentration 10) was 0.091. The pEC50 ([3]; Staphylococcus aureus, DSM2569, regrowth delay of non-growing bacteria, 1:4 CA-MHB pH 7.4, 24 h treatment, OD600 8 h after dilution, read-out: EC50) was 7.39, the “log10(CFU/ml) after treatment” value (non-growing UPEC CFT073; E. coli in 1:4 CA-MHB (pH 7.4), concentration 0.25) was 9.114 log10(CFU/ml) and 8.301 log10(CFU/ml) and 8.415 log10(CFU/ml) and the “Killing: average Δlog10(CFU/ml)” value (non-growing UPEC CFT073; E. coli in 1:4 CA-MHB (pH 7.4), concentration 0.25, vs 8.977 before treatment) was 0.367 log10(CFU/ml). The “log10(CFU/ml) after treatment” value (non-growing UPEC CFT073; E. coli in 1:4 CA-MHB (pH 7.4), concentration 0.5) was 9.301 log10(CFU/ml) and 8.778 log10(CFU/ml) and 8.380 log10(CFU/ml), the “Killing: average Δlog10(CFU/ml)” value (non-growing UPEC CFT073; E. coli in 1:4 CA-MHB (pH 7.4), concentration 0.5, vs 8.977 before treatment) was 0.158 log10(CFU/ml) and the “log10(CFU/ml) after treatment” value (non-growing UPEC CFT073; E. coli in 1:4 CA-MHB (pH 7.4), concentration 1) was 9.079 log10(CFU/ml) and 8.602 log10(CFU/ml) and 8.342 log10(CFU/ml). For the same molecule, the “Killing: average Δlog10(CFU/ml)” value (non-growing UPEC CFT073; E. coli in 1:4 CA-MHB (pH 7.4), concentration 1, vs 8.977 before treatment) was 0.303 log10(CFU/ml), the “log10(CFU/ml) after treatment” value (non-growing UPEC CFT073; E. coli in 1:4 CA-MHB (pH 7.4), concentration 2.5) was 9.176 log10(CFU/ml) and 9.204 log10(CFU/ml) and 8.845 log10(CFU/ml) and the “Killing: average Δlog10(CFU/ml)” value (non-growing UPEC CFT073; E. coli in 1:4 CA-MHB (pH 7.4), concentration 2.5, vs 8.977 before treatment) was -0.098 log10(CFU/ml). The “log10(CFU/ml) after treatment” value (non-growing UPEC CFT073; E. coli in 1:4 CA-MHB (pH 7.4), concentration 5) was 9.204 log10(CFU/ml) and 8.699 log10(CFU/ml) (2×), the “Killing: average Δlog10(CFU/ml)” value (non-growing UPEC CFT073; E. coli in 1:4 CA-MHB (pH 7.4), concentration 5, vs 8.977 before treatment) was 0.110 log10(CFU/ml) and the “log10(CFU/ml) after treatment” value (non-growing UPEC CFT073; E. coli in 1:4 CA-MHB (pH 7.4), concentration 10) was 9.114 log10(CFU/ml) and 8.362 log10(CFU/ml) and 8.204 log10(CFU/ml). The “Killing: average Δlog10(CFU/ml)” value (non-growing UPEC CFT073; E. coli in 1:4 CA-MHB (pH 7.4), concentration 10, vs 8.977 before treatment) was 0.417 log10(CFU/ml), the “log10(CFU/ml) after treatment” value (non-growing UPEC CFT073; E. coli in LPM (pH 5.5), concentration 0.25) was 7.000 log10(CFU/ml) and 6.519 log10(CFU/ml) and 7.613 log10(CFU/ml) and the “Killing: average Δlog10(CFU/ml)” value (non-growing UPEC CFT073; E. coli in LPM (pH 5.5), concentration 0.25, vs 7.350 before treatment) was 0.307 log10(CFU/ml). The “log10(CFU/ml) after treatment” value (non-growing UPEC CFT073; E. coli in LPM (pH 5.5), concentration 0.5) was 6.954 log10(CFU/ml) and 6.699 log10(CFU/ml) and 7.531 log10(CFU/ml), the “Killing: average Δlog10(CFU/ml)” value (non-growing UPEC CFT073; E. coli in LPM (pH 5.5), concentration 0.5, vs 7.350 before treatment) was 0.289 log10(CFU/ml) and the “log10(CFU/ml) after treatment” value (non-growing UPEC CFT073; E. coli in LPM (pH 5.5), concentration 1) was 6.778 log10(CFU/ml) and 6.602 log10(CFU/ml) and 7.613 log10(CFU/ml). The “Killing: average Δlog10(CFU/ml)” value (non-growing UPEC CFT073; E. coli in LPM (pH 5.5), concentration 1, vs 7.350 before treatment) was 0.353 log10(CFU/ml), the “log10(CFU/ml) after treatment” value (non-growing UPEC CFT073; E. coli in LPM (pH 5.5), concentration 2.5) was 7.079 log10(CFU/ml) and 6.447 log10(CFU/ml) and 7.491 log10(CFU/ml) and the “Killing: average Δlog10(CFU/ml)” value (non-growing UPEC CFT073; E. coli in LPM (pH 5.5), concentration 2.5, vs 7.350 before treatment) was 0.344 log10(CFU/ml). For the same molecule, the “log10(CFU/ml) after treatment” value (non-growing UPEC CFT073; E. coli in LPM (pH 5.5), concentration 5) was 7.204 log10(CFU/ml) and 6.845 log10(CFU/ml) and 7.301 log10(CFU/ml), the “Killing: average Δlog10(CFU/ml)” value (non-growing UPEC CFT073; E. coli in LPM (pH 5.5), concentration 5, vs 7.350 before treatment) was 0.234 log10(CFU/ml) and the “log10(CFU/ml) after treatment” value (non-growing UPEC CFT073; E. coli in LPM (pH 5.5), concentration 10) was 6.778 log10(CFU/ml) and 7.041 log10(CFU/ml) and 7.204 log10(CFU/ml). The “Killing: average Δlog10(CFU/ml)” value (non-growing UPEC CFT073; E. coli in LPM (pH 5.5), concentration 10, vs 7.350 before treatment) was 0.342 log10(CFU/ml).
